The values below are quoted from earlier work in patent US12435094B1, “Methods of preparing isomers, analogs, and synthetic derivatives from akuamma seeds” (priority 2024, dated 2025).

One data set has as its target mu opioid receptor (μOR) (Homo sapiens, UniProt P35372). The note with it: background statement, no data shown.
The subject of data set [1] is animal models of antinociception. The note with it: background statement, no data shown.

Chain of mu opioid receptor (μOR) (P35372 whole entry, species assumed): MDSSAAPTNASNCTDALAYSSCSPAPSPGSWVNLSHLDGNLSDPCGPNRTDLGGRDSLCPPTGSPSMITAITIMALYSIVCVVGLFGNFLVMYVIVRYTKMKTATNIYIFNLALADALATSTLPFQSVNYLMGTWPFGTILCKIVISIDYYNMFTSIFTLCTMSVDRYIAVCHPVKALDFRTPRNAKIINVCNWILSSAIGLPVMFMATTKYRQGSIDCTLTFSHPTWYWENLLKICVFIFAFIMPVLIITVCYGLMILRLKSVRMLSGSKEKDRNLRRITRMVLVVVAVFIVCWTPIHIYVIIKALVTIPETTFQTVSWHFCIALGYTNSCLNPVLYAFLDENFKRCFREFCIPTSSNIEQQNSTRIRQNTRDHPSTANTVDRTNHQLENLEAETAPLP

As to `C/C=C1/CN2CC[C@@]34c5ccccc5N(C)[C@]35OCC4(C(=O)OC)[C@@H]1C[C@H]25` [pseudoakuammigine, Pseudoakuammigine], on mu opioid receptor (μOR), the “agonism of the mu opioid receptor (μOR)” value is recorded as “weak agonists”. The “effects in animal models of antinociception” value in data set [1] is recorded as “minimal effects”.
As to Akuammine, the “agonism of the mu opioid receptor (μOR)” value on mu opioid receptor (μOR) is reported as “weak agonists”. For the same compound, the “effects in animal models of antinociception” value in data set [1] was “minimal effects”.
